# Patent US9834558B2, “Substituted bridged urea analogs as sirtuin modulators” (GLAXOSMITHKLINE LLC, priority 2013, dated 2017)
# Molecular target: T1, SIRT1 (Homo sapiens, UniProt Q96EB6)
# T1 sequence (Q96EB6 1-747): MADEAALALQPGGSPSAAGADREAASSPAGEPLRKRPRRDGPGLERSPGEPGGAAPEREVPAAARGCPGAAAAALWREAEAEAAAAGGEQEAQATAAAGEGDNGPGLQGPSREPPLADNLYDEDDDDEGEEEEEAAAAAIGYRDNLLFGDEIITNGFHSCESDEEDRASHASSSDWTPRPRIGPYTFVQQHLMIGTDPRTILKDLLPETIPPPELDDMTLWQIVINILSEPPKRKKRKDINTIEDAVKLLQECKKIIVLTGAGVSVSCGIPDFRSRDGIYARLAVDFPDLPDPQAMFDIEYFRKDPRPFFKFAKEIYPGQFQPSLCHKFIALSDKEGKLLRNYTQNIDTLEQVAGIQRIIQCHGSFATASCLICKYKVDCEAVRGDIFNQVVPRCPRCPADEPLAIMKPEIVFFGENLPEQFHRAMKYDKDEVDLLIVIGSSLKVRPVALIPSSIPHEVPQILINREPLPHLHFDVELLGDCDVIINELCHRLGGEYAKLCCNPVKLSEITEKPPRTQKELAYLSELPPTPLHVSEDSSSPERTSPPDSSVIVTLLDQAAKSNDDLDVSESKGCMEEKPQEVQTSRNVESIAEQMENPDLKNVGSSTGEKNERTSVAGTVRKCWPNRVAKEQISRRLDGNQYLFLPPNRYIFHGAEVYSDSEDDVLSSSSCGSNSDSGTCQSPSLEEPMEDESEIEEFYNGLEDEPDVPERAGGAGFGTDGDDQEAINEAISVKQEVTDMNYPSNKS
# Test: Trp mass spectrometry assay of SIRT1 activation
# Type: biochemical
# Settings: for TRP Activity (EC1.5) / Emax: Trp peptide assay; for TRP Activity (EC1.5): EC1.5 = concentration that results in 150% activation of SIRT1; for Emax: maximum activity relative to control (100%), read-out: TRP MAX RESP (percent maximum fold activation)
# Outline: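 N-terminal His-tagged human SIRT1 (10 nM, E. coli BL21(DE3)) with 0.5 μM Ac-RHKK(Ac)W-NH2 peptide and 120 μM βNAD+, 25 min at 25 °C in HEPES pH 7.5, formic acid stop. OAADPR or deacetylated peptide quantified by mass spectrometry; EC1.5 (50% activity increase over control) and Percent Maximum Activation reported.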
# [1] = Trp peptide substrate, concentration giving 150% activation of SIRT1
# [2] = Trp mass spectrometry assay, EC1.5 = concentration of test compound that results in 150% activation of SIRT1
# [3] = Trp mass spectrometry assay, concentration of test compound giving 150% activation of SIRT1
# [4] = concentration giving 150% activation of SIRT1, Trp peptide substrate
smiles,measurement,setting,value
"O=C(Nc1ccnc(OC[C@@H](O)CO)n1)N1c2nc(-c3cccc(C(F)(F)F)c3)ccc2N2CC[C@H]1C2 [(9S)-N-{2-[(2S)-2,3-dihydroxypropoxy]pyrimidin-4-yl}-5-[3-(trifluoromethyl)phenyl]-1,6,8-triazatricyclo[7.2.1.0 {2,7}]dodeca-2(7),3,5-triene-8-carboxamide]",TRP Activity (EC1.5),,A (A (EC1.5<1 μM))
same,Emax,,> 150%
Cc1nc(NC(=O)N2c3nc(-c4cccc(C(F)(F)F)c4)ccc3N3CC[C@H]2C3)nc2c1CCC2 [Example 91],Tryp AVG EC1.5 (μM),[1],B (B (EC1.5 1-25 μM))
O=C(Nc1cccnn1)N1c2nc(-c3cccc(N4CCOCC4)c3)ccc2N2CCC[C@H]1C2 [Example 539],Tryp AVG EC1.5 (μM),[2],B (B (EC1.5 1-25 μM))
Cc1cc(C)nc(NC(=O)N2c3nc(-c4cccc(Cl)c4)ccc3N3CC[C@H]2C3)c1 [Example 105],Tryp AVG EC1.5 (μM),[1],B (B (EC1.5 1-25 μM))
O=C(Nc1cccnc1)N1c2nc(-c3cncc(Cl)c3)ccc2N2CC[C@H]1C2 [Example 526],Tryp AVG EC1.5 (μM),[2],A (A (EC1.5<1 μM))
O=C(Nc1ccncc1F)N1c2nc(-c3cccc(Cl)c3)ccc2N2CCC[C@H]1C2 [Example 421],Tryp AVG EC1.5 (μM),[2],A (A (EC1.5<1 μM))
"Cc1cc(-c2ccc3c(n2)N(C(=O)Nc2nccc4nccnc24)[C@H]2CCN3C2)ccn1 [(9S)-5-(2-methylpyridin-4-yl)-N-{pyrido[3,4-b]pyrazin-5-yl}-1,6,8-triazatricyclo[7.2.1.0 {2,7}]dodeca-2,4,6-triene-8-carboxamide]",TRP Activity (EC1.5),,B (B (EC1.5 1-25 μM))
same,Emax,,> 150%
Cn1cc(-c2ccc3c(n2)N(C(=O)Nc2cccnc2)[C@H]2CCN3C2)cn1 [Example 395],Tryp AVG EC1.5 (μM),[3],B (B (EC1.5 1-25 μM))
CN(C)Cc1cccc(-c2ccc3c(n2)N(C(=O)Nc2ccccn2)[C@H]2CCN3C2)c1 [Example 343],Tryp AVG EC1.5 (μM),[3],B (B (EC1.5 1-25 μM))
O=C(CCCC[C@@H]1SCC2NC(=O)NC21)NCCCCCC(=O)NCc1ccc(NC(=O)N2c3nc(-c4cccc(C(F)(F)F)c4)ccc3N3CC[C@H]2C3)cc1 (stereo partly drawn) [Example 428],Tryp AVG EC1.5 (μM),[2],A (A (EC1.5<1 μM))
Cc1nc(NC(=O)N2c3nc(-c4cncc(Cl)c4)ccc3N3CCC[C@H]2C3)sc1C [Example 402],Tryp AVG EC1.5 (μM),[3],A (A (EC1.5<1 μM))
"Cc1cc(-c2ccc3c(n2)N(C(=O)Nc2ccc4c(c2)OCO4)[C@H]2CCN3C2)ccn1 [(9S)-N-(2H-1,3-benzodioxo1-5-yl)-5-(2-methylpyridin-4-yl)-1,6,8-triazatricyclo[7.2.1.0 {2,7}]dodeca-2(7),3,5-triene-8-carboxamide]",TRP Activity (EC1.5),,A (A (EC1.5<1 μM))
same,Emax,,> 150%
"O=C(Nc1ccc(F)cn1)N1c2nc(N3CCC[C@H](C(F)(F)F)C3)ccc2N2CCC[C@H]1C2 [drawing 1177, (9S)-N-(5-fluoropyridin-2-yl)-5-[(3S)-3-(trifluoromethyl)piperidin-1-yl]-1,6,8-triazatricyclo[7.3.1.0 {2,7}]trideca-2(7),3,5-triene-8-carboxamide]",TRP Activity (EC1.5),,A (A (EC1.5<1 μM))
same,Emax,,> 150%
O=C(Nc1cccc(-c2ccc(C(F)(F)F)cn2)c1)N1c2nc(-c3cccc(C(F)(F)F)c3)ccc2N2CC[C@H]1C2 [Example 618],Tryp AVG EC1.5 (μM),[2],B (B (EC1.5 1-25 μM))
"O=C(Nc1ccccn1)N1c2nc(N3CCC[C@H]3C(F)(F)F)ccc2N2CCC[C@H]1C2 [(9S)-N-(pyridin-2-yl)-5-[(2S)-2-(trifluoromethyl)pyrrolidin-1-yl]-1,6,8-triazatricyclo[7.3.1.0 {2,7}]trideca-2(7),3,5-triene-8-carboxamide]",TRP Activity (EC1.5),,B (B (EC1.5 1-25 μM))
same,Emax,,> 150%
Cc1cncc(NC(=O)N2c3nc(-c4cncc(C(F)(F)F)c4)ccc3N3C[C@@H](O)[C@H]2C3)c1 [Example 690],Tryp AVG EC1.5 (μM),[4],B (B (EC1.5 1-25 μM))
"O=C(Nc1ccccn1)N1c2nc(N3CC[C@H](C(F)(F)F)C3)ccc2N2CCC[C@H]1C2 [drawing 1101, (9S)-N-(pyridin-2-yl)-5-[(3S)-3-(trifluoromethyl)pyrrolidin-1-yl]-1,6,8-triazatricyclo[7.3.1.0 {2,7}]trideca-2(7),3,5-triene-8-carboxamide]",TRP Activity (EC1.5),,B (B (EC1.5 1-25 μM))
O=C(Nc1cnccn1)N1c2nc(-c3cc(F)c(F)c(F)c3)ccc2N2CC[C@H]1C2 [Example 416],Tryp AVG EC1.5 (μM),[3],C (C (EC1.5>25 μM))
O=C(Nc1ccccn1)N1c2nc(-c3cncc(C(F)(F)F)c3)ccc2N2CCC[C@H]1C2 [Example 369],Tryp AVG EC1.5 (μM),[3],A (A (EC1.5<1 μM))
"O=C(Nc1cnccn1)N1c2nc(N3CCOCC3)ccc2N2CC[C@H]1C2 [(9S)-5-(morpholin-4-yl)-N-(pyrazin-2-yl)-1,6,8-triazatricyclo[7.2.1.0 {2,7}]dodeca-2,4,6-triene-8-carboxamide]",TRP Activity (EC1.5),,B (B (EC1.5 1-25 μM))
same,Emax,,> 150%
NCCCc1ccc(NC(=O)N2c3nc(-c4cccc(C(F)(F)F)c4)ccc3N3CCC[C@H]2C3)cc1-c1cnco1 [Example 767],Tryp AVG EC1.5 (μM),[4],A (A (EC1.5<1 μM))
O=C(Nc1cccc(-c2cnco2)n1)N1c2nc(-c3cncc(C(F)(F)F)c3)ccc2N2C[C@@H](O)[C@H]1C2 [Example 703],Tryp AVG EC1.5 (μM),[4],A (A (EC1.5<1 μM))
Cn1nccc1-c1cccc(NC(=O)N2c3nc(-c4cccc(C(F)(F)F)c4)ccc3N3CC[C@H]2C3)n1 [Example 623],Tryp AVG EC1.5 (μM),[2],A (A (EC1.5<1 μM))
COC(=O)c1cccc(NC(=O)N2c3nc(-c4cccc(C(F)(F)F)c4)ccc3N3CC[C@H]2C3)c1 [Example 626],Tryp AVG EC1.5 (μM),[4],A (A (EC1.5<1 μM))
NCc1ccc(NC(=O)N2c3nc(-c4cccc(C(F)(F)F)c4)ccc3N3CC[C@H]2C3)cc1 [Example 429],Tryp AVG EC1.5 (μM),[2],B (B (EC1.5 1-25 μM))
O=C(Nc1cc(-c2cnco2)ccn1)N1c2nc(-c3cccc(C(F)(F)F)c3)ccc2N2CCC1CC2 [Example 595],Tryp AVG EC1.5 (μM),[2],A (A (EC1.5<1 μM))
O=C1CN2C[C@H]1N(C(=O)Nc1cccc(-c3cnco3)c1)c1nc(-c3cccc(C(F)(F)F)c3)ccc12 [Example 692],Tryp AVG EC1.5 (μM),[4],A (A (EC1.5<1 μM))
O=C(Nc1ccncc1)N1c2nc(-c3cccc(C(F)(F)F)c3)ccc2N2CC[C@@H]1C2 [Example 824],Tryp AVG EC1.5 (μM),[4],A (A (EC1.5<1 μM))
"O=C(Nc1cccnn1)N1c2nc(-c3ccnc(C(F)(F)F)c3)ccc2N2CCC[C@H]1C2 [(9S)-N-(pyridazin-3-yl)-5-[2-(trifluoromethyl)pyridin-4-yl]-1,6,8-triazatricyclo[7.3.1.0 {2,7}]trideca-2(7),3,5-triene-8-carboxamide]",TRP Activity (EC1.5),,A (A (EC1.5<1 μM))
same,Emax,,> 150%
O=C(NCCc1ccncc1)N1c2nc(-c3cccc(C(F)(F)F)c3)ccc2N2CC[C@H]1C2 [Example 613],Tryp AVG EC1.5 (μM),[2],B (B (EC1.5 1-25 μM))
O=C(Nc1cncc(-c2cnco2)c1)N1c2nc(-c3cncc(F)c3)ccc2N2CC[C@H]1C2 [Example 716],Tryp AVG EC1.5 (μM),[4],B (B (EC1.5 1-25 μM))
O=C(Nc1cccc(-c2cnco2)c1)N1c2nc(-c3cccc(Cl)c3)ccc2N2C[C@@H](O)[C@H]1C2 [Example 683],Tryp AVG EC1.5 (μM),[4],A (A (EC1.5<1 μM))
COc1ccc(-c2ccc3c(n2)N(C(=O)Nc2cnccn2)[C@H]2CCN3C2)cn1 [Example 399],Tryp AVG EC1.5 (μM),[3],B (B (EC1.5 1-25 μM))
O=C(Nc1cc(-c2cnco2)ccn1)N1c2nc(-c3cncc(F)c3)ccc2N2CC[C@H]1C2 [Example 727],Tryp AVG EC1.5 (μM),[4],A (A (EC1.5<1 μM))
O=C(Nc1cnccn1)N1c2nc(-c3ccnc(N4CC[C@@H](F)C4)c3)ccc2N2CC[C@H]1C2 [Example 462],Tryp AVG EC1.5 (μM),[2],B (B (EC1.5 1-25 μM))
"Cc1cc(-c2ccc3c(n2)N(C(=O)NCc2cccnc2)[C@H]2CCN3C2)ccn1 [(9S)-5-(2-methylpyridin-4-yl)-N-(pyridin-3-ylmethyl)-1,6,8-triazatricyclo[7.2.1.0 {2,7}]dodeca-2(7),3,5-triene-8-carboxamide]",TRP Activity (EC1.5),,B (B (EC1.5 1-25 μM))
same,Emax,,> 150%
O=C(Nc1ccccn1)N1c2nc(-c3ccc(-c4nnn[nH]4)cc3)ccc2N2CC[C@H]1C2 [Example 347],Tryp AVG EC1.5 (μM),[3],A (A (EC1.5<1 μM))
N=C(NCCN)c1ccc(NC(=O)N2c3nc(-c4cccc(C(F)(F)F)c4)ccc3N3CCC[C@H]2C3)cc1 [Example 792],Tryp AVG EC1.5 (μM),[4],A (A (EC1.5<1 μM))
"COc1cncc(NC(=O)N2c3nc(-c4ccnc(C)c4)ccc3N3CCC[C@H]2C3)n1 [(9S)-N-(6-methoxypyrazin-2-yl)-5-(2-methylpyridin-4-yl)-1,6,8-triazatricyclo[7.3.1.0 {2,7}]trideca-2(7),3,5-triene-8-carboxamide]",TRP Activity (EC1.5),,A (A (EC1.5<1 μM))
same,Emax,,> 150%
